Assay results from ChEMBL document CHEMBL1148200, “Kulokekahilide-2, a cytotoxic depsipeptide from a cephalaspidean mollusk Philinopsis speciosa” (J Nat Prod, 2004).

Key:
MDA-MB-435 = assay: Cytotoxicity against human MDA-MB-435 cells; format: functional, cell-based
SK-OV-3 = assay: Cytotoxicity against human SKOV3 cells; format: functional, cell-based
A10 = assay: Cytotoxicity against rat A10 cells; format: cell-based
P388 = assay: Cytotoxicity against mouse P388 cells; format: functional, cell-based

C/C=C(\C)[C@H]1OC(=O)[C@H](C)NC(=O)[C@H]([C@@H](C)CC)NC(=O)CN(C)C(=O)[C@H](Cc2ccccc2)N(C)C(=O)[C@@H](C)NC(=O)[C@@H](CC(C)C)OC(=O)/C(C)=C/C[C@H](O)[C@@H]1C
IC50 (MDA-MB-435): 14.6 nM
IC50 (SK-OV-3): 7.5 nM
IC50 (A10): 59.1 nM
IC50 (P388): 4.2 nM
